In patent US10131652B2, “Pyrimidinyloxy benzene derivatives as herbicides” (E. I. DU PONT DE NEMOURS AND COMPANY, priority 2014, dated 2018):
Where two headings read alike, the source gives them in different places.

Experiments:
Experiment in all cases: Test E pre-/postemergence plant response
Type in all cases: in vivo
[1] = tested on: Italian ryegrass (Lolium multiflorum); settings: scale 0 to 100, read-out: Plant response rating, Ryegrass, Italian; for pest or weed control at 16 g/ha: 16 g ai/ha; for pest or weed control at 31 g/ha: 31 g ai/ha; for pest or weed control at 62 g/ha: 62 g ai/ha; for pest or weed control at 125 g/ha: 125 g ai/ha
How it was run: (§1)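 Visual scores on a 0–100 scale (100 = complete control) were assigned against untreated controls 7–21 days after treatment in a controlled environment. Compounds, formulated with solvent plus surfactant, were applied to pre-emergence silt-loam sowings or to 1- to 4-leaf plants (2–18 cm) in potting medium.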

[2] = tested on: canarygrass (Phalaris minor); settings: scale 0 to 100, read-out: Plant response rating, Canarygrass; for pest or weed control at 16 g/ha: 16 g ai/ha; for pest or weed control at 31 g/ha: 31 g ai/ha; for pest or weed control at 62 g/ha: 62 g ai/ha; for pest or weed control at 125 g/ha: 125 g ai/ha
How it was run: as §1

[3] = tested on: chickweed (common chickweed, Stellaria media); settings: scale 0 to 100, read-out: Plant response rating, Chickweed; for pest or weed control at 16 g/ha: 16 g ai/ha; for pest or weed control at 31 g/ha: 31 g ai/ha; for pest or weed control at 62 g/ha: 62 g ai/ha; for pest or weed control at 125 g/ha: 125 g ai/ha
How it was run: as §1

[4] = tested on: field poppy (Papaver rhoeas); settings: scale 0 to 100, read-out: Plant response rating, Field Poppy; for pest or weed control at 16 g/ha: 16 g ai/ha; for pest or weed control at 31 g/ha: 31 g ai/ha; for pest or weed control at 62 g/ha: 62 g ai/ha; for pest or weed control at 125 g/ha: 125 g ai/ha
How it was run: as §1

[5] = tested on: kochia (Kochia scoparia); settings: Bassia scoparia, scale 0 to 100, read-out: Plant response rating, Kochia; for pest or weed control at 16 g/ha: 16 g ai/ha; for pest or weed control at 31 g/ha: 31 g ai/ha; for pest or weed control at 62 g/ha: 62 g ai/ha; for pest or weed control at 125 g/ha: 125 g ai/ha
How it was run: as §1

[6] = tested on: pigweed (Amaranthus retroflexus); settings: scale 0 to 100, read-out: Plant response rating, Pigweed; for pest or weed control at 16 g/ha: 16 g ai/ha; for pest or weed control at 31 g/ha: 31 g ai/ha; for pest or weed control at 62 g/ha: 62 g ai/ha; for pest or weed control at 125 g/ha: 125 g ai/ha
How it was run: as §1

[7] = tested on: spring barley (Hordeum vulgare); settings: for plant injury at 16 g/ha: 16 g ai/ha; for plant injury at 31 g/ha: 31 g ai/ha; for plant injury at 62 g/ha: 62 g ai/ha; for plant injury at 125 g/ha: 125 g ai/ha
How it was run: as §1

[8] = tested on: spring wheat (Triticum aestivum); settings: scale 0 to 100, read-out: Plant response rating, Wheat, Spring; for plant injury at 16 g/ha: 16 g ai/ha; for plant injury at 62 g/ha: 62 g ai/ha; for plant injury at 125 g/ha: 125 g ai/ha
How it was run: as §1

[9] = tested on: wild radish (Raphanus raphanistrum); settings: scale 0 to 100, read-out: Plant response rating, Radish, Wild; for pest or weed control at 16 g/ha: 16 g ai/ha; for pest or weed control at 31 g/ha: 31 g ai/ha; for pest or weed control at 62 g/ha: 62 g ai/ha; for pest or weed control at 125 g/ha: 125 g ai/ha
How it was run: as §1

[10] = tested on: windgrass (Apera spica-venti); settings: scale 0 to 100, read-out: Plant response rating, Windgrass; for pest or weed control at 16 g/ha: 16 g ai/ha; for pest or weed control at 62 g/ha: 62 g ai/ha; for pest or weed control at 125 g/ha: 125 g ai/ha
How it was run: as §1

[11] = tested on: winter wheat (Triticum aestivum); settings: scale 0 to 100, read-out: Plant response rating, Wheat, Winter; for plant injury at 16 g/ha: 16 g ai/ha; for plant injury at 62 g/ha: 62 g ai/ha; for plant injury at 125 g/ha: 125 g ai/ha
How it was run: as §1

[12] = post-emergence, Postemergence, scale 0 to 100, read-out: Plant response rating, Barley, Spring
[13] = pre-emergence, Preemergence, scale 0 to 100, read-out: Plant response rating, Barley, Spring
[14] = post-emergence, 31 g ai/ha, Postemergence

Fc1cccc(Oc2ncc(Cl)cn2)c1-c1cc(C(F)F)no1 [Compound 144, 5-chloro-2-[2-[3-(difluoromethyl)-5-isoxazolyl]-3-fluorophenoxy]pyrimidine]
45%: plant injury at 125 g/ha ([7]; post-emergence, Postemergence, scale 0 to 100 (0 no effect, 100 complete control), read-out: Plant response rating, Barley, Spring) | plant injury at 62 g/ha [7, 13] | plant injury at 62 g/ha ([8]; post-emergence, Postemergence)
30%: plant injury at 31 g/ha [11, 14]
15%: pest or weed control at 31 g/ha ([1]; post-emergence, Postemergence) | plant injury at 16 g/ha [7, 12]
5%: pest or weed control at 16 g/ha ([1]; post-emergence, Postemergence) | plant injury at 16 g/ha ([8]; pre-emergence, Preemergence)
60%: pest or weed control at 31 g/ha ([2]; post-emergence, Postemergence)
55%: plant injury at 125 g/ha ([8]; pre-emergence, Preemergence) | pest or weed control at 125 g/ha ([10]; post-emergence, Postemergence)
10%: pest or weed control at 16 g/ha ([1]; pre-emergence, Preemergence) | plant injury at 16 g/ha [7, 13] | pest or weed control at 16 g/ha ([10]; post-emergence, Postemergence) | pest or weed control at 16 g/ha ([10]; pre-emergence, Preemergence)
80%: pest or weed control at 31 g/ha ([2]; pre-emergence, Preemergence) | pest or weed control at 16 g/ha ([9]; pre-emergence, Preemergence) | pest or weed control at 31 g/ha ([9]; pre-emergence, Preemergence)
85%: pest or weed control at 125 g/ha ([2]; post-emergence, Postemergence) | pest or weed control at 16 g/ha ([3]; post-emergence, Postemergence)
65%: pest or weed control at 125 g/ha ([1]; post-emergence, Postemergence) | pest or weed control at 62 g/ha ([2]; post-emergence, Postemergence) | plant injury at 125 g/ha [7, 13]
35%: pest or weed control at 16 g/ha ([2]; post-emergence, Postemergence) | pest or weed control at 16 g/ha ([2]; pre-emergence, Preemergence) | plant injury at 62 g/ha [7, 12] | plant injury at 31 g/ha [8, 14] | plant injury at 62 g/ha ([11]; post-emergence, Postemergence) | plant injury at 125 g/ha ([11]; pre-emergence, Preemergence)
40%: pest or weed control at 62 g/ha ([1]; post-emergence, Postemergence) | plant injury at 62 g/ha ([8]; pre-emergence, Preemergence)
20%: pest or weed control at 31 g/ha [10, 14] | plant injury at 16 g/ha ([11]; post-emergence, Postemergence)
75%: plant injury at 125 g/ha ([8]; post-emergence, Postemergence)
100%: pest or weed control at 125 g/ha ([1]; pre-emergence, Preemergence) | pest or weed control at 62 g/ha ([2]; pre-emergence, Preemergence) | pest or weed control at 125 g/ha ([2]; pre-emergence, Preemergence) | pest or weed control at 31 g/ha ([3]; post-emergence, Postemergence) | pest or weed control at 62 g/ha ([3]; post-emergence, Postemergence) | pest or weed control at 125 g/ha ([3]; post-emergence, Postemergence) | pest or weed control at 16 g/ha ([3]; pre-emergence, Preemergence) | pest or weed control at 31 g/ha ([3]; pre-emergence, Preemergence) | pest or weed control at 62 g/ha ([3]; pre-emergence, Preemergence) | pest or weed control at 125 g/ha ([3]; pre-emergence, Preemergence) | pest or weed control at 16 g/ha ([4]; post-emergence, Postemergence) | pest or weed control at 31 g/ha ([4]; post-emergence, Postemergence) | pest or weed control at 62 g/ha ([4]; post-emergence, Postemergence) | pest or weed control at 125 g/ha ([4]; post-emergence, Postemergence) | pest or weed control at 16 g/ha ([4]; pre-emergence, Preemergence) | pest or weed control at 31 g/ha ([4]; pre-emergence, Preemergence) | pest or weed control at 62 g/ha ([4]; pre-emergence, Preemergence) | pest or weed control at 125 g/ha ([4]; pre-emergence, Preemergence) | pest or weed control at 16 g/ha ([5]; post-emergence, Postemergence) | pest or weed control at 31 g/ha ([5]; post-emergence, Postemergence) | pest or weed control at 62 g/ha ([5]; post-emergence, Postemergence) | pest or weed control at 125 g/ha ([5]; post-emergence, Postemergence) | pest or weed control at 31 g/ha ([5]; pre-emergence, Preemergence) | pest or weed control at 62 g/ha ([5]; pre-emergence, Preemergence) | pest or weed control at 125 g/ha ([5]; pre-emergence, Preemergence) | pest or weed control at 31 g/ha ([6]; post-emergence, Postemergence) | pest or weed control at 62 g/ha ([6]; post-emergence, Postemergence) | pest or weed control at 125 g/ha ([6]; post-emergence, Postemergence) | pest or weed control at 16 g/ha ([6]; pre-emergence, Preemergence) | pest or weed control at 31 g/ha ([6]; pre-emergence, Preemergence) | pest or weed control at 62 g/ha ([6]; pre-emergence, Preemergence) | pest or weed control at 125 g/ha ([6]; pre-emergence, Preemergence) | pest or weed control at 16 g/ha ([9]; post-emergence, Postemergence) | pest or weed control at 31 g/ha ([9]; post-emergence, Postemergence) | pest or weed control at 62 g/ha ([9]; post-emergence, Postemergence) | pest or weed control at 125 g/ha ([9]; post-emergence, Postemergence) | pest or weed control at 62 g/ha ([9]; pre-emergence, Preemergence) | pest or weed control at 125 g/ha ([9]; pre-emergence, Preemergence) | pest or weed control at 62 g/ha ([10]; pre-emergence, Preemergence) | pest or weed control at 125 g/ha ([10]; pre-emergence, Preemergence)
70%: pest or weed control at 62 g/ha ([1]; pre-emergence, Preemergence) | plant injury at 125 g/ha ([11]; post-emergence, Postemergence)
98%: pest or weed control at 16 g/ha ([5]; pre-emergence, Preemergence) | pest or weed control at 16 g/ha ([6]; post-emergence, Postemergence)
25%: pest or weed control at 31 g/ha ([1]; pre-emergence, Preemergence) | plant injury at 31 g/ha [7, 12] | plant injury at 31 g/ha [7, 13] | plant injury at 16 g/ha ([8]; post-emergence, Postemergence) | pest or weed control at 62 g/ha ([10]; post-emergence, Postemergence) | plant injury at 62 g/ha ([11]; pre-emergence, Preemergence)
0%: plant injury at 16 g/ha ([11]; pre-emergence, Preemergence)
